The values that follow come from PubChem BioAssay (NCI).

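Method: 48-hour compound exposure of cells in 96-well plates, five concentrations, linear interpolation of endpoints. TGI: total growth inhibition.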

What all share (assay): NCI anticancer screen, dose series, 48 h
Assay [1] relates to U251 CNS.
Assay [2] has as its system ACHN renal.
Assay [3] deals with 786-0 renal.
For assay [4], the system named is CAKI-1 renal.
For assay [5], the system named is K-562 leukemia.
Assay [6] deals with HCT-116 colon.
Assay [7] concerns SK-MEL-2 melanoma.
The subject of assay [8] is SK-MEL-5 melanoma.
Assay [9] relates to TK-10 renal.
Assay [10] deals with MDA-MB-435.

Consider `N#Cc1c(/C=C/c2ccccc2)c2c([nH]c1=S)CCCCC2`, for which the TGI in assay [1], in [2], in assay [3], in assay [4], in assay [5] and in [6] was above 100 µM throughout. The TGI in assay [7], in assay [8], in assay [9] and in [10] was above 100 µM in each case.

For `COc1cc(C(c2ccccc2)N2C(=O)CC[C@H]2C(=O)O)cc(OC)c1OC` (some centres undefined), the TGI in [1], in assay [2], in assay [3], in [4], in [5] and in assay [6] was above 100 µM throughout. In addition, the TGI in [7], in assay [8], in assay [9] and in assay [10] was above 100 µM each time.

With `CCOP(=O)(OCC)C(Nc1ccc(Cl)cc1)c1ccc(F)cc1` (centres undefined), the TGI in [1] is 41.3 µM; in [2], 97.2 µM; in assay [3], 43.4 µM; in assay [4], 83.6 µM; in [5], 68.5 µM; in assay [6], 44.5 µM. Further, the TGI is 35.8 µM in assay [7], 32.8 µM in [8], above 100 µM in assay [9] and 39.7 µM in assay [10].

On to `COc1cc2nc(-c3cccs3)nc(N3CCN(c4ccccc4)CC3)c2cc1OC`, for which the TGI in assay [1], in [2], in [3], in [4], in assay [5] and in assay [6] was above 100 µM throughout. Further, the TGI in assay [7], in [8], in [9] and in [10] was above 100 µM throughout.

With `O=C1C(c2ccccc2)=C(c2ccccc2)C1(Cl)Cl`, the TGI in [1] was 7.68 µM; in assay [2], 7.09 µM; in assay [3], 7.36 µM; in [4] it was 6.15 µM; in assay [5] it was 4.13 µM; in assay [6] it was 2.85 µM. The TGI in assay [7] is 8.7 µM; in assay [8], 8.03 µM; in assay [9], 2.81 µM; in assay [10], 6.7 µM.

Regarding `C=C(C)C1(Sc2ccc(OC)cc2)CC1`, the TGI in assay [1], in assay [2], in assay [3], in assay [4], in assay [5] and in assay [6] was above 100 µM throughout. Further, the TGI in assay [7] is 56.5 µM; in assay [8], 31.6 µM; in assay [9], above 100 µM; in assay [10], 44 µM.

On to `N=C1C=CC(=C(c2ccc(N)cc2)c2ccc(N)cc2)C=C1`, for which the TGI was 22.6 µM in [1]; 31.2 µM in [2]; 12.9 µM in assay [3]; 58.1 µM in assay [4]; 27.1 µM in [5]; 13.9 µM in assay [6]. Also, the TGI in assay [7] is 10.4 µM; in assay [8], 9.5 µM; in [9], 28.1 µM; in assay [10] it was 19.7 µM.

On to `O=C(CC(=O)N1N=C(c2ccccc2)C(N=Nc2ccc(S(=O)(=O)CCOS(=O)(=O)O)cc2)C1=O)Nc1ccc(Cl)cc1` (centres undefined), for which the TGI in assay [1], in assay [2], in assay [3], in [4], in assay [5] and in [6] was above 100 µM each time. The TGI in assay [7], in [8], in assay [9] and in [10] was above 100 µM each time.

With `CN(C)C(=O)N1N[C@H](c2ccccc2)[C@@H]1c1ccccc1`, the TGI in assay [1], in assay [2], in [3], in [4], in [5] and in assay [6] was above 100 µM in each case. In addition, the TGI in assay [7], in assay [8], in [9] and in assay [10] was above 100 µM in each case.

Turning to `O=C(O)C(Cc1ccccc1)Cc1ccccc1`, the TGI in assay [1], in assay [2], in assay [3], in assay [4], in assay [5] and in assay [6] was above 100 µM each time. For the same molecule, the TGI in [7], in [8], in [9] and in [10] was above 100 µM in each case.

Consider `O=C(CCCCCNC(=O)c1ccc(Cl)cc1)NO`, for which the TGI in assay [1] is 24 µM; in [2], 41.6 µM; in assay [3] it was 39 µM; in assay [4], 21.1 µM; in [5] it was above 100 µM; in assay [6], 10.7 µM. The TGI is 7.22 µM in assay [7], 13.9 µM in [8], 16.4 µM in [9] and 31.3 µM in [10].

In the case of `COCC(C#N)NC1CC(OC2CC(O)(C(=O)CO)Cc3c(O)c4c(c(O)c32)C(=O)c2c(OC)cccc2C4=O)OC(C)C1O` (centres undefined), the TGI in assay [1] amounted to 0.86 µM; in [2] it was 5.46 µM; in [3], 1.77 µM; in assay [4], 0.285 µM; in [5] it was 1.11 µM; in assay [7], 0.316 µM. Moreover, the results for the TGI in assay [8], in [9] and in assay [10] were 0.154 µM, 2.42 µM and 0.346 µM, respectively.

Consider `COC1(OC)CC(CO)(COc2cc(Cl)nc(N)n2)C1`, for which the TGI in [1], in assay [2], in assay [3], in assay [4], in assay [5] and in [6] was above 100 µM each time. In addition, the TGI in assay [7], in assay [8], in assay [9] and in assay [10] was above 100 µM in each case.

Take `C1=CC2C(C3CN(c4ccccc4)N=C13)C1C3C4C=CC21C=CC43` (centres undefined): the TGI in assay [1], in assay [2], in [3], in assay [4], in assay [5] and in [6] was above 100 µM throughout. Besides, the TGI in [7], in assay [8], in [9] and in assay [10] was above 100 µM throughout.
